Results as given in PMC3390896, “The Distribution and Physiological Effects of the Myoinhibiting Peptides in the Kissing Bug, Rhodnius Prolixus” (Frontiers in Neuroscience, 2012).
Like-named read-outs stand apart in the source and are kept apart here. Where a SMILES comes first, the peptide text is derived from it. Bridges are numbered along the chain shown (N, C = ends). Where no end group is shown, it is not given here.

Key:
[1] = system: R. prolixus hindgut; assay: R. prolixus hindgut contraction assay (spontaneous contractions, force transducer); design: species or system Rhodnius prolixus; conditions: mean of five to six preparations
Excerpt: Hindguts from female adult R. prolixus were dissected under R. prolixus saline, leaving a small portion of the ventral cuticle attached to the posterior end. The preparation was placed in a shallow trough molded into a Sylgard-coated petri dish. The preparation was secured to the dish by pinning the cuticle using minuten pins. The anterior end of the hindgut was attached to an AE875 miniature force transducer (Aksjeselskapet Mikro-Elektronikk, Norway) using a strand of silk. Muscle activity was monitored on a linear flat-bed chart recorder connected to a force transducer through an amplifier. Isolated hindguts were maintained in 200 μL of saline at room temperature. Working concentrations of Rhopr-MIP-4 or Rhopr-MIP-7 were applied by removing 100 μL of saline and replacing it with the same volume of peptide that yielded final concentrations of 10^−11 to 10^−6 M. The peptides were washed from the preparation using saline between trials. The effects of the peptides on hindgut contractions were monitored over a 5 min time period.
Responses to Rhopr-MIP-4 and Rhopr-MIP-7 were quantified by dividing the frequency of contractions during the second minute after application, by the frequency of contractions during the 1 min interval prior to peptide application.

[2] = target: T1, Drosophila melanogaster sex peptide receptor (Drome-SPR) (Drosophila melanogaster, UniProt Q8SWR3); assay: Functional aequorin-based Drome-SPR assay in CHO-WTA11 cells; assay type: cell-based; conditions: CHO cells coexpressing aequorin, Gα16 and Drosophila SPR; aequorin luminescence; three independent measurements done in triplicate
T1 construct: expressed in transfected cells; host or cells: CHO-WTA11 cells (expressing apoaequorin and Gα16)
T1 sequence (Q8SWR3 1-435): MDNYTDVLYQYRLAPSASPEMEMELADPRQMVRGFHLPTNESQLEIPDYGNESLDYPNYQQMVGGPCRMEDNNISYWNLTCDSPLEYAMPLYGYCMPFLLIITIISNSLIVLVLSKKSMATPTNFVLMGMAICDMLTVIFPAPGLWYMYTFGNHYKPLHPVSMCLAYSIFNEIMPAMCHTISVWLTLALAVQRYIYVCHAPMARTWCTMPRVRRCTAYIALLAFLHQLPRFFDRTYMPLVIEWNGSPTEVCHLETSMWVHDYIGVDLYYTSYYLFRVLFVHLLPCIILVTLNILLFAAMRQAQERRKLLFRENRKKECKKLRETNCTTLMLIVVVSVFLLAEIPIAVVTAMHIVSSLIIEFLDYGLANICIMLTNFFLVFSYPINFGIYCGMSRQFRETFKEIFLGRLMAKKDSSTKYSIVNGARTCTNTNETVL
Method: Drome-SPR expression vector (described by Poels et al., [2010]) transfected and mock transfected (negative control) CHO-WTA11 cells (expressing apoaequorin and Gα16) were grown until 90% confluency, detached using PBS with 100 μM EDTA, spun (6 min, 150 g) and resuspended at 5 × 10^6 cells/mL in D-MEM/F-12 without phenol red supplemented with 0.1% BSA. “Coelenterazine h” (Invitrogen) was added to a concentration of 5 μM and the cells were incubated in the dark at room temperature for 3–4 h. After coelenterazine loading, cells were diluted 10-fold and incubated for 30 min. Test compounds were dissolved in 50 μL D-MEM/F-12 supplemented with 0.1% BSA and dispensed in triplicate into the wells of a white 96-well plate. Light emission was recorded (Mithras LB940, Berthold) for 30 s immediately after injection of 50 μL cell suspension into each well. Cells were then lysed by a second injection of 50 μL 0.3% Triton X-100 and monitored during 8 s. Data were collected using MikroWin2000 (Mikrotek Laborsysteme Gmbh).

[3] = system: L. migratoria hindgut; conditions: ref Schoofs et al., [1991]; cited from earlier work
Excerpt: As shown in many insects (and as indicated by their name) MIPs are inhibitory of visceral muscle contraction. Thus, in R. prolixus, MIPs inhibit contractions of the hindgut in a dose-dependent manner. This is true for Rhopr-MIP-4 and for Rhopr-MIP-7. […] The thresholds for these Rhopr-MIPs were approximately the same. These threshold concentrations are lower than the threshold concentrations determined for the suppression of hindgut muscle contractions in L. migrator ...

[4] = target: T1, Drosophila melanogaster sex peptide receptor (Drome-SPR); design: method as in Poels et al., [2010]; conditions: same aequorin assay; ref Poels et al., [2010]; cited from earlier work
Method: The activity profiles of Rhopr-MIP-4 and -7 were tested in the functional aequorin-based Drome-SPR assays (Figure 5).

[5] = frequency in second minute after application divided by frequency in 1 min before, read-out: IC50 for frequency of spontaneous hindgut contractions
[6] = isolated hindgut of female adult R. prolixus, saline, room temperature, read-out: IC50 for amplitude of spontaneous hindgut contractions

Row | Molecule | IC50 [1, 5] [nM] | IC50 [1, 6] [nM] | EC50 [2] [nM] | threshold concentration for suppression of hindgut muscle contractions [3] [nM] | EC50 [4] [nM]
1 | CC(C)C[C@H](NC(=O)[C@H](CC(=O)O)NC(=O)[C@H](CO)NC(=O)[C@H](Cc1c[nH]c2ccccc12)NC(=O)[C@H](C)N)C(=O)N[C@@H](CCC(N)=O)C(=O)N[C@@H](CO)C(=O)N[C@@H](CO)C(=O)NCC(=O)N[C@@H](Cc1c[nH]c2ccccc12)C(N)=O [Rhopr-MIP-4] (H-AWSDLQSSGW-NH2) | ~20 | ~10 | 53 |  | 
2 | CC(C)C[C@H](NC(=O)[C@H](CO)NC(=O)[C@H](CC(N)=O)NC(=O)[C@H](Cc1c[nH]c2ccccc12)NC(=O)[C@H](C)N)C(=O)N[C@@H](Cc1c[nH]cn1)C(=O)NCC(=O)NCC(=O)N[C@@H](Cc1c[nH]c2ccccc12)C(N)=O [Rhopr-MIP-7] (H-AWNSLHGGW-NH2) | ~20 | ~100 | 0.59 |  | 
3 | AWQDLNAGW-NH2 [Lom-MIP] |  |  |  | 1.8 | 
4 | Drome-SP: Drosophila sex peptide, 36 amino acids with a core W(X8)W and a C-terminal disulfide bridge (WEWPWNRKPTKFPIPSPNPRDKWCRLNLGPAWGGRC; disulfide 24-36 (inferred); UniProt P05623 20-55, looked up) |  |  |  |  | ~15
